In patent US20150366962A1 (priority 2014, published 2015):

Assays:
rPR/8 HA = rPR/8 HA single immunization: serum antibody ELISA; format: in vivo, BALB/c mice; conditions: for seroconversion to rPR/8 HA (total IgG, IgG1, IgG2a): 5 μg rPR/8 HA i.m. day 0, sera days 7, 14, 21; for total serum IgG reactive to antigen, long term / IgG2a/IgG1 ratio (Th1-Th2 immune balance): 5 μg rPR/8 HA; for total serum IgG reactive to antigen, long term: bled every 3 weeks up to 18 weeks; for IgG2a/IgG1 ratio (Th1-Th2 immune balance): single immunization
[1] = tested on: A/Puerto Rico/8/1934(H1N1); set-up: species or system BALB/c mice; conditions: mouse, in vivo
[2] = tested on: A/Brisbane/59/2007 (H1N1), A/Uruguay/716/2007 (H3N2), B/Brisbane/60/2008; assay: Fluzone immunization: serum IgG to the vaccine's viral components; format: in vivo, BALB/c mice; conditions: 50 ng/HA 2009-2010 Fluzone, 3 weeks
PR/8 virus / PR/8 HA = assay: Long-term memory response after rPR/8 HA: HAI titers, B cell and IFN-γ ELISpot; format: in vivo, BALB/c mice
Description: (A) BALB/c mice were i.m. immunized with rPR/8 HA (5 μg/animal) on day 0 with the indicated adjuvant or vehicle, and sera were collected every 3 weeks (red drops). (B) Levels of antigen-specific total IgG were measured by ELISA. (C) The serum HAI titer to PR/8 virus was assayed at 6 weeks after immunization, with a detection limit of 1:40 serum dilution; nd, not detectable. (D and E) Eighteen weeks after immunization, mice (n=5/group) were administered 10 mLD50 of PR/8 virus and monitored for morbidity, as measured by body weight loss (D), and mortality (E) induced by the viral challenge. […]
AddaVax was used at a 1:1 ratio with antigen in PBS. […] IFN-γ spot-forming cells were detected with the IFN-γ ELISpot ALP kit (3321-2A; Mabtech, Cincinnati, Ohio). Antigen specific B cells from splenocytes were quantified 5 days after reexposure to antigen (5 μg of rPR/8HAin PBS only administered i.m.) by plating them on ELISpot plates coated with rPR/8 protein (Strep tag purified) for 20 h, and detection of secreted antibody was performed with an anti-mouse IgG secondary antibody conjugated to horseradish peroxidase (HRP).
Anti-OVA antibodies of the IgG subclasses IgG1 and IgG2c were measured by ELISA. Each ELISA plate contained a titration of a previously quantitated serum to generate a standard curve. […] Total IgG, IgG1, and IgG2a were detected.

rCal/09 HA = assay: Cross-reactive serum IgG to Cal/09 HA after rPR/8 HA immunization; format: in vivo, BALB/c mice; conditions: for heteroreactive serum IgG titers versus unadjuvanted protein alone: 5 μg rPR/8 HA, rCal/09 HA substrate, 3 weeks
[3] = Histological examination for reactogenicity (H&E, injected muscle); format: in vivo, BALB/c mice; conditions: for inflammation at the site of injection and systemically in comparison to AddaVax: 24 h after i.m. injection; for cellular infiltration in injected muscle (H&E): i.m. without antigen, 24 h after injection
Excerpt: Scale bars, 100 μm. […] The error bars indicate SEM.
Twenty-four hours after injection, muscle tissues at the injection sites and sera were harvested. The muscles were fixed in 10% buffered formalin and embedded in paraffin. Sections 5 μm thick were stained with hematoxylin and eosin (H&E) and examined under a microscope.

[4] = tested on: human umbilical vein cells (HUVEC); assay: Chemokine induction in HUVEC; format: cell-based
Description: (§1) TLR7 expression in humans is limited to plasmacytoid DC and B cells, and different from the expression in mice. Conversely, TLR4 is abundantly expressed in different cell types in humans and mice. Thus, experiments were performed to determine whether 1Z105 and 1V270 could stimulate human umbilical vein cells (HUVEC) and myeloid dendritic cells.

myeloid dendritic cells = assay: Chemokine induction in human myeloid dendritic cells; format: cell-based; conditions: myeloid DC
Description: as §1

OT-II splenocytes = assay: Intracellular IFNγ in CD4 T cells of OT-II splenocytes; format: cell-based, mice; conditions: for intracellular IFNγ expressing CD4 T cells: alone, OVA323-339, 3 days
Description: To evaluate whether 1Z105 can enhance the proinflammatory cytokine induction by 1V270, BMDC (C57BL/6) were incubated with 1V270 (0.025, or 0.1 μM) in the presence or absence of 1Z105 (5 μM). […] Antigen presenting function was evaluated using splenocytes prepared from OVA MHC class II-restricted alpha beta T cell receptor (TCR) transgenic mice OT-II. Splenocytes were cultured with OVA peptide (OVA323-339) for 3 days with 1Z105, or 1V270 alone or in combination. The frequency of intracellular (IC) IFNγ expressing CD4 T cells was determined by flow cytometric assay. Treatment with 1V270 alone increased intracellular IFNγ (3.7 and 6.8% by 25 and 100 nM, respectively).

recombinant PR8 HA = assay: T cell response to head and stalk segments of PR8 HA (IFNγ ELISpot or ELISA); format: in vivo, Balb/c mice; conditions: two immunizations two weeks apart, 6 weeks after the first
PBMC = assay: IL-8 release by human PBMC; format: cell-based
Excerpt: To confirm the activities of 1Z105/1V270 combined adjuvant in human cells, PBMC were stimulated with these agonists.

| Structure (SMILES) | seroconversion to rPR/8 HA (total IgG, IgG1, IgG2a) (rPR/8 HA) | total serum IgG reactive to antigen, long term (rPR/8 HA) | IgG2a/IgG1 ratio (Th1-Th2 immune balance) (rPR/8 HA) | mortality [1] | survival after the lethal challenge [1] [%] | weight loss [1] | seroresponse to the three viral components of Fluzone (ELISA) [2] | heteroreactive serum IgG titers versus unadjuvanted protein alone (rCal/09 HA) | inflammation at the site of injection and systemically in comparison to AddaVax [3] | cellular infiltration in injected muscle (H&E) [3] | induction of chemokines MCP-1 and IL-8 [4] | induction of chemokines MCP-1 and IL-8 (myeloid dendritic cells) | T cell response against the head segment (pool 1-2) of HA (recombinant PR8 HA) | IL-8 release by PBMC (PBMC) | further results |
| --- | --- | --- | --- | --- | --- | --- | --- | --- | --- | --- | --- | --- | --- | --- | --- |
| Cn1c2ccccc2c2nc(SCC(=O)NC3CCCCC3)n(-c3ccccc3)c(=O)c21 [Compound 1Z105] | induced rapid seroconversion | induced a robust and sustained IgG response | produced predominately IgG1 in a Th2-type response | provided protective efficacy | 100 | significantly reduced weight loss | enhanced the seroresponse to all three viral components | significantly higher | minimal inflammation | minimal cellular infiltration | induced the chemokines MCP-1, and IL-8 | induced the chemokines MCP-1, and IL-8 | highly induced T cell response | minimal levels of IL-8 | difference in serum IgG endpoint titers among rHA doses (antigen sparing) (rPR/8 HA; 5, 1 or 0.2 μg rPR/8 HA, 3 weeks after immunization): no significant difference; mortality compared to no-adjuvant control receiving 5 μg of rHA [1]: significantly minimized; fold increase in HAI titer induced by the boost (PR/8 virus / PR/8 HA; 5 days after reexposure versus preboost): significant only in the 1Z105 group; subtypes of cross-reactive antibodies (IgG2a/IgG1) (rCal/09 HA; antibodies cross-reactive to Cal/09 HA): produced predominately IgG1; frequency of IFNγ-producing cells (OT-II splenocytes; 1Z105 in combination with 1V270): additively increased |
| CCCCCCCCC=CCCCCCCCC(=O)OCC(COP(=O)(O)OCCNC(=O)c1ccc(Cn2c(=O)[nH]c3c(N)nc(OCCOC)nc32)cc1)OC(=O)CCCCCCCC=CCCCCCCCC (centres unmarked) [Compound 1V270] | induced rapid seroconversion | induced a robust and sustained IgG response | induced both IgG1 and IgG2a in a more balanced Th1-Th2-type response | provided protective efficacy | 100 | significantly reduced weight loss | enhanced the seroresponse to all three viral components | significantly higher | minimal inflammation | minimal cellular infiltration | minimal effects | minimal effects | highly induced T cell response | minimal levels of IL-8 | weight loss compared to AddaVax [1]: restricted weight loss compared to AddaVax; antigen-specific IFN-γ-producing T cells (ELISpot) (PR/8 virus / PR/8 HA; splenocytes 6 months after immunization, PR/8 HA peptide pool overnight): induced antigen-specific IFN-γ T cells that were long lived; intracellular IFNγ expressing CD4 T cells (OT-II splenocytes; 25 nM): 3.7%; intracellular IFNγ expressing CD4 T cells (OT-II splenocytes; 100 nM): 6.8%; stalk-specific (pool 3-4) T cell responses (recombinant PR8 HA): also induced stalk-specific (pool 3-4) T cell responses |
